Assay results: patent US20250302862A1, “SMALL RNA DRUG FOR INHIBITING ACTIVITY OF CANCER CELLS” (Institute of Basic Medical Sciences Chinese Academy of …, priority 2022, published 2025)

Legend:
[1] = test system: breast cancer MDA-MB-231 cells; test: Concentration-dependent proliferation inhibition, MTS; assay type: cell-based; conditions: gradient 0.01-100 noml/L, MTS after 48 h
Experimental: (§1) 1) Breast cancer MCF7 cells, breast cancer MDA-MB-231 cells, gastric cancer AGS cells, pancreatic cancer HS766T cells, pancreatic cancer ASPC-1 cells, and prostate cancer PC-3 cells with a cell density of more than 90% in 10 cm^2 plates were plated in 96-well according to the cell growth rate. Transfection was performed after 12 h, and the groups (3 wells per group) were divided as follows: • blank control group: 20 uL of opti-MEM • negative control group (NC group) and experimental group: • A. 10 uL of opti-MEM and 0.2 uL of iMax were mixed well for 5 min • B. 10 uL of opti-MEM and small RNA were mixed well (the concentration gradient of experimental group was set as: 0.01 noml/L, 0.03 noml/L, 0.1 noml/L, 0.39 noml/L, 0.78 noml/L, 1.56 noml/L, 3.125 noml/L, 6.25 noml/L, 12.5 noml/L, 25 noml/L, 50 noml/L, 100 noml/L; the final concentration of sRNA in NC group was 100 noml/L) • C. solution A and solution B were mixed well and let stand for 15 min, and then was added at a 20 uL system • Note: 100 uL of nuclease-free water was added to 2 nmol of small RNA dry powder for dissolution at a storage concentration of 20 umol/L
(§2) 2) Detection of cell viability: MTS detection was performed after 48 h.
Formulation of MTS detection solution was as follows: opti-MEM:MTS A solution:MTS B solution=100:20:1. […] Absorbance values at wavelengths of 490 nm and 630 nm were measured in a microplate reader. […]

gastric cancer AGS cells = test: as above; assay type: cell-based, human; conditions: gradient 0.01-100 noml/L, MTS after 48 h
Experimental: as §1, §2
(§3) Formulation of MTS detection solution was as follows: opti-MEM:MTS A solution:MTS B solution=100:20:1. After removing the supernatant, 100 uL of MTS detection solution was added to each well and incubated for 0.5-2 h. Absorbance values at wavelengths of 490 nm and 630 nm were measured in a microplate reader.
as §1, with “dishes” for “plates”, “96-well plates” for “96-well”

[2] = test system: prostate cancer PC-3 cells; test: as above; assay type: cell-based, human; conditions: gradient 0.01-100 noml/L, MTS after 48 h
Experimental: as §1, §2, §3
as §1, with “dishes” for “plates”, “96-well plates” for “96-well”

[3] = test system: pancreatic cancer HS766T cells; test: as above; assay type: cell-based, human; conditions: gradient 0.01-100 noml/L, MTS after 48 h
Experimental: as §1, §2, §3
as §1, with “dishes” for “plates”, “96-well plates” for “96-well”

[4] = test system: pancreatic cancer ASPC-1 cells; test: as above; assay type: cell-based, human; conditions: gradient 0.01-100 noml/L, MTS after 48 h
Experimental: as §1, §2, §3
as §1, with “dishes” for “plates”, “96-well plates” for “96-well”

breast cancer MCF7 cells [5] = test: as above; assay type: cell-based, human; conditions: gradient 0.01-100 noml/L, MTS after 48 h
Experimental: as §1, §2, §3
as §1, with “dishes” for “plates”, “96-well plates” for “96-well”

breast cancer MCF7 cells [6] = test: Apoptosis detection (Annexin V / PI); assay type: cell-based, human; conditions: 100 nmol/L, 48 h
Experimental: 1) MCF-7 cells with a cell density of more than 90% in 10 cm^2 dishes were plated in 12-well plates according to the cell growth rate, and transfected after 12 h, and the groups were divided as follows: • blank control group (4 wells): 200 uL of opti-MEM per well • negative control group (NC group) and experimental group (3 wells each): • A. 100 uL of opti-MEM and 2 uL of iMax were mixed well for 5 min • B. 100 uL of opti-MEM and 5 uL of small RNA (final concentration 100 nmol/L) were mixed well • C. solution A and solution B were mixed well and let stand for 15 min, and then was added to each well at a 200 uL system • Note: 100 uL of nuclease-free water was added to 2 nmol of small RNA dry powder for dissolution at a storage concentration of 20 umol/L
The supernatant and cells were collected after 48 h and washed twice with pre-chilled PBS. The 4 tubes of cells in the blank control group were added respectively with: (1) 200 uL of 1× binding buffer; (2) 200 uL of 1× binding buffer and 5 uL of Annexin V stain; (3) 200 uL of 1× binding buffer and 5 uL of PI stain; (4) 200 uL of 1× binding buffer, 5 uL of Annexin V stain and 5 uL of PI stain. […] The live cell population and the position of quadrant gate were selected according to the blank control group, and then the apoptosis of the NC group and the experimental group was detected. […]

| Substance | proliferation-inhibiting function (cell activity, MTS) [1] | proliferation-inhibiting function (cell activity, MTS) (gastric cancer AGS cells) | proliferation-inhibiting function (cell activity, MTS) [2] | proliferation-inhibiting function (cell activity, MTS) [3] | proliferation-inhibiting function (cell activity, MTS) [4] | proliferation-inhibiting function (cell activity, MTS) (breast cancer MCF7 cells [5]) | apoptosis (breast cancer MCF7 cells [6]) |
| --- | --- | --- | --- | --- | --- | --- | --- |
| MDM-sRNA-39: small RNA derived from Maytenus hookeri, sequence GGGAUUGUAGUUCAAUUGGUCAGAGCACC (listed as RNA, chemistry not given here) | concentration-dependent | concentration-dependent | concentration-dependent | concentration-dependent | concentration-dependent | concentration-dependent | promotes |
| MDM-sRNA-163: small RNA derived from Maytenus hookeri, sequence UGACUCUAGUCCGACUUUGUGAAAUGACU (listed as RNA, chemistry not given here) | concentration-dependent | concentration-dependent | concentration-dependent | concentration-dependent | concentration-dependent | concentration-dependent | promotes |
